# Data from patent US7910621B2, “Small molecule antagonists of XIAP family proteins” (The Regents of the University of Michigan, priority 2004, dated 2011).
# Legend:
# [1] = system: normal human fibroblast cell line WI-38; experiment: WST-1 cell growth inhibition assay, WI-38; format: cell-based; settings: 120 h, WI-38, WST-1, five days
# Description: (§1) FIG. 5 presents inhibition of cell growth by embelin in prostate cancer cells (PC-3 and LnCap) and its selectivity in normal human prostate epithelial cells (PrEC) and normal human fibroblast cell line, WI-38. 5000 cells per well in a 96-well cell culture plate were treated with various concentrations of embelin in triplicate. Five days later, the cell growth was measured by the WST-1 cell growth assay kit […] The cell growth results are expressed as the percent of control and calculated from the percent of absorbance of treated wells versus that of vehicle control.
# (§2) Human prostate cancer cell lines (PC-3, LNCap, CL-1, DU-145), and normal human fibroblast cell line WI-38 were obtained from the American Type Culture Collection (ATCC), were grown and maintained in Dulbecco's modified Eagle's medium (DMEM) containing 10% FBS (Invitrogen Corporation). Normal human prostate epithelial cells (PrEC) were obtained from Clonetics (Cambrex Inc., MD) and maintained in the special medium provided by the company. […]
# (§3) Cell growth was determined by the MTT-based assay using Cell Proliferation Reagent WST-1 (Roche) according to the manufacturer's instruction. […] Absorbance was measured with a plate reader at […] with correction at […]. The results are expressed as the percent of absorbance of treated wells versus that of vehicle control.
# [2] = system: PC-3 prostate cancer cells; experiment: Annexin V-FITC apoptosis assay by flow cytometry, PC-3; format: cell-based, human; settings: 48 hours
# Description: FIG. 6 presents induction of apoptosis by embelin in PC-3 prostate cancer cells. 1×10^6 PC-3 cells per well in 6-well culture plates were treated with embelin for 48 hours, stained with Annexin V-FITC and propidium iodide for apoptosis by flow cytometry. The results are shown as percent of Annexin V-FITC positive apoptotic cells (n=3).
# (§4) PC-3 cells, 1×10^6 cells per well in 6-well culture plates, were treated in triplicate with various concentrations of embelin for 24 or 48 hours, then trypsinized and washed with PBS. For Jurkat cells, 1×10^6 Jurkat-XIAP or Jurkat-Vec cells per well in 6-well culture plates, were treated with etoposide, embelin, or both for 15 hours. For flow cytometry apoptosis assay, cells were stained with Annexin V-FITC and propidium iodide using the Annexin-V-FLUOS Kit (Roche) according to the manufacturer's instruction. The fluorescence of Annexin V-FITC and propidium iodide of individual cells was analyzed by FACScan. The results are shown as percent of Annexin V-FITC positive apoptotic cells.
# [3] = system: normal human prostate epithelial cells (PrEC); experiment: WST-1 cell growth inhibition assay, PrEC; format: cell-based; settings: 120 h, WST-1, five days
# Description: as §1, §2, §3
# [4] = system: caspase-9 in normal PrEC cells; experiment: Activation of caspase-9 assay, PrEC; format: cell-based, human; settings: compared to vehicle treated control cells
# Description: FIGS. 7A and 7B show the activation of caspase-9 by embelin in PC-3 prostate cancer cells and its selectivity in normal prostate epithelial cells. 1×10^6 PC-3 or PrEC cells per well in 6-well culture plates were treated with embelin for 48 hours. An additional control was prepared by adding the pan-caspase inhibitor Z-VAD-FMK (2 uM final) 5 min before adding embelin, to inhibit caspase activation. The cells were collected and stained of active caspase-9 by CaspGLOW Red Active Caspase-9 Staining Kit, and analyzed by flow cytometry in PI channel.
# 1×10^6 PC-3 cells per well in 6-well culture plates, were treated with various concentrations of embelin, or the same amount of solvent DMSO as vehicle control, for up to 48 hr. An additional control was prepared by adding the pan-caspase inhibitor Z-VAD-FMK (1 uM final) 5 min before adding embelin, to inhibit caspase activation. The cells were collected for staining of active caspase-9 by CaspGLOW Red Active Caspase-9 Staining Kit (BioVision, Inc., Mountain View, Calif.) according to the manufacturer's instructions, with modification. […] The cells were resuspended in 0.3 ml Binding Buffer and analyzed by flow cytometry, using PI channel for active caspase-9 and FITC channel for apoptosis.
# [5] = target: XIAP BIR3 protein of human XIAP (residues 241-356) (Homo sapiens, UniProt P98170); settings: read-out: IC50 (displacement of SM7F from XIAP BIR3); 10 nM SM7F, 0.060 μM XIAP BIR3; three independent experiments in triplicate
# Jurkat-Vec cells = experiment: Annexin V-FITC apoptosis assay, Jurkat-Vec; format: cell-based; settings: combination with etoposide, 15 hours
# Description: FIGS. 8A and 8B present (A): Dose-dependent induction of apoptosis by etoposide in Jurkat cells transfected with vector control (Jurkat-Vec) and stably transfected with XIAP (Jurkat-XIAP cells); and (B): Induction of apoptosis by etoposide and embelin alone and in combination in Jurkat-Vec and Jurkat-XIAP cells. 1×10^6 Jurkat-XIAP or Jurkat-Vec cells per well in 6-well culture plates were treated with etoposide and embelin alone, or in combination for 15 hours, then stained with Annexin V-FITC and propidium iodide for apoptosis by flow cytometry. The results are shown as percent of Annexin V-FITC positive apoptotic cells.
# as §4
# Chain of XIAP BIR3 protein of human XIAP (residues 241-356) (P98170 241-356): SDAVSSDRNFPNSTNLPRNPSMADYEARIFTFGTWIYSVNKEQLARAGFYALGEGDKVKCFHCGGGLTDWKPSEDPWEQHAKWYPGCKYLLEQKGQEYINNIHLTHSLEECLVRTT
compound,measurement,setting,value
CCCCCCCCCCCC1=C(O)C(=O)C=C(O)C1=O [embelin],IC50,[1],19.3 µM
same,PC-3 cells that underwent apoptosis (Annexin V-FITC positive),[2]; 25 μM,30%
same,increase in apoptosis as compared to control cells,[2]; 25 μM,approximately 3 fold
same,PC-3 cells that underwent apoptosis (Annexin V-FITC positive),[2]; 50 μM,75%
same,increase in apoptosis as compared to control cells,[2]; 50 μM,~9 fold
same,IC50,[3],20.1 µM
same,activation of caspase-9 in normal PrEC,[4],no significant effect
same,activation of caspase-9 in normal PrEC,[4]; listed as Embelin,minimal effects
same,IC50,[5],4.1 ± 1.1 µM
same,"effect on etoposide-induced apoptosis in combination, compared to etoposide alone",Jurkat-Vec cells,did not increase
